The results in this text go back to ChEMBL document CHEMBL4138181, “Synthesis, molecular docking, and QSAR study of sulfonamide-based indoles as aromatase inhibitors” (Eur J Med Chem, 2018).

Data set [1] deals with T1, Aromatase (Homo sapiens, UniProt P11511).
T1 sequence (P11511 whole entry): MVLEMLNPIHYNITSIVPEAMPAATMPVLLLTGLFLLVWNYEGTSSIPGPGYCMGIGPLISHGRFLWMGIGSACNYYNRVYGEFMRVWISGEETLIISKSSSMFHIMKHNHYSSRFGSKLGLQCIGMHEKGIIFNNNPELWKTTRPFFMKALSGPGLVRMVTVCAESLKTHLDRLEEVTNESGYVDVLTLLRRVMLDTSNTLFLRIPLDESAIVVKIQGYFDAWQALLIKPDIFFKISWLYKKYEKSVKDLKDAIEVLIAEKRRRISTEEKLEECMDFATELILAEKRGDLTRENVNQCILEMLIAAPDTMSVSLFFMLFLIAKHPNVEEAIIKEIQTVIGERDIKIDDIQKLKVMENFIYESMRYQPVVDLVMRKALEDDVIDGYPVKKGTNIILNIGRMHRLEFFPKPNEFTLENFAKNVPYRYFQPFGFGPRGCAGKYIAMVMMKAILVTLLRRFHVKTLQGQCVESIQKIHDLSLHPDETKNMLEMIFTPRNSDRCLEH
The data set is described as follows: Inhibition of aromatase (unknown origin) using O-benzyl fluorescein benzyl ester as substrate in presence of NADPH-generating system by fluorescence assay.

A further data set concerns Vero. Description: Cytotoxicity against GFP-expressing African green monkey Vero cells after 4 days by fluorescence assay. Type of data set: cell-based. The settings on record: Chlorocebus sabaeus, 96 h.
For data set [2], the system named is aromatase. The data set is described as follows: Selectivity index, ratio of IC50 for GFP-expressing African green monkey Vero cells to IC50 for aromatase (unknown origin). Type of data set: toxicity. The settings on record: read-out: Ratio IC50.

Structures are written as SMILES.

Usually IC50 stands for the concentration that gives 50% inhibition. For `COc1ccc(S(=O)(=O)NCCc2c(C3(c4[nH]c5ccccc5c4CCNS(=O)(=O)c4ccc(OC)cc4)C(=O)Nc4ccccc43)[nH]c3ccccc23)cc1`, the half-inhibitory concentration (IC50) on Aromatase [1] is 2.8 µM; in the data set on Vero, more than 50 µg/mL. Further, the selectivity ratio in the data set with aromatase [2] is more than 22.6.

`O=S(=O)(NCCc1c(C(c2ccc3c(c2)Cc2ccccc2-3)c2[nH]c3ccccc3c2CCNS(=O)(=O)c2ccc(Cl)cc2)[nH]c2ccccc12)c1ccc(Cl)cc1`: the values for the IC50 at Aromatase [1] and in the data set on Vero were 8.8 µM and more than 50 µg/mL, respectively. Besides, in the data set on aromatase [2], the selectivity ratio was more than 6.72.

Consider `O=[N+]([O-])c1ccccc1S(=O)(=O)NCCc1c(C(c2ccccc2O)c2[nH]c3ccccc3c2CCNS(=O)(=O)c2ccccc2[N+](=O)[O-])[nH]c2ccccc12`, for which the results for the IC50 at Aromatase [1] and with Vero were 4.6 µM and more than 50 µg/mL, respectively. The selectivity ratio in the data set with aromatase [2] is more than 13.7.

In the case of `O=C1Nc2ccccc2C1(c1[nH]c2ccccc2c1CCNS(=O)(=O)c1ccc(Cl)cc1)c1[nH]c2ccccc2c1CCNS(=O)(=O)c1ccc(Cl)cc1`, the 50% inhibitory concentration (IC50) at Aromatase [1] is 8.3 µM; in the data set on Vero, more than 50 µg/mL. The selectivity ratio in the data set with aromatase [2] was more than 7.54.

For `O=C1Nc2ccccc2C1(c1[nH]c2ccccc2c1CCNS(=O)(=O)c1ccccc1[N+](=O)[O-])c1[nH]c2ccccc2c1CCNS(=O)(=O)c1ccccc1[N+](=O)[O-]`, the IC50 on Aromatase [1] is 9.8 µM; in the data set with Vero, more than 50 µg/mL. Also, in the data set with aromatase [2], the selectivity ratio was more than 6.22.

For `CCn1c2ccccc2c2ccc(C(c3[nH]c4ccccc4c3CCNS(=O)(=O)c3ccc(Cl)cc3)c3[nH]c4ccccc4c3CCNS(=O)(=O)c3ccc(Cl)cc3)cc21`, the IC50 was 3.9 µM at Aromatase [1] and more than 50 µg/mL in the data set with Vero. Further, the selectivity ratio in the data set on aromatase [2] is more than 14.7.

With `COc1ccc(S(=O)(=O)NCCc2c(C(c3cc(OC)c(O)c(OC)c3)c3[nH]c4ccccc4c3CCNS(=O)(=O)c3ccc(OC)cc3)[nH]c3ccccc23)cc1`, the IC50 on Aromatase [1] is 2.5 µM; with Vero, more than 50 µg/mL. Besides, in the data set on aromatase [2], the selectivity ratio is more than 24.2.

With `O=C1Nc2ccccc2C1(c1[nH]c2ccccc2c1CCNS(=O)(=O)c1cccc([N+](=O)[O-])c1)c1[nH]c2ccccc2c1CCNS(=O)(=O)c1cccc([N+](=O)[O-])c1`, the IC50 is 11.9 µM on Aromatase [1] and more than 50 µg/mL in the data set on Vero. Besides, the selectivity ratio with aromatase [2] was more than 5.13.
